Measurements reported in patent US9499485B2, “Compounds that are S1P modulating agents and/or ATX modulating agents” (BIOGEN MA INC., priority 2012, dated 2016).

Key:
human S1P4 = biological target: T1, human S1P4 (Homo sapiens, UniProt O95977); experiment: S1P receptor calcium flux assay, antagonist format (S1P4 antagonist activity); type: cell-based; conditions: calcium mobilization, recombinant CHEM cells expressing human S1P4, stimulated with EC80 of reference agonist
T1 construct: host or cells: recombinant CHEM cells
T1 sequence (O95977 1-384): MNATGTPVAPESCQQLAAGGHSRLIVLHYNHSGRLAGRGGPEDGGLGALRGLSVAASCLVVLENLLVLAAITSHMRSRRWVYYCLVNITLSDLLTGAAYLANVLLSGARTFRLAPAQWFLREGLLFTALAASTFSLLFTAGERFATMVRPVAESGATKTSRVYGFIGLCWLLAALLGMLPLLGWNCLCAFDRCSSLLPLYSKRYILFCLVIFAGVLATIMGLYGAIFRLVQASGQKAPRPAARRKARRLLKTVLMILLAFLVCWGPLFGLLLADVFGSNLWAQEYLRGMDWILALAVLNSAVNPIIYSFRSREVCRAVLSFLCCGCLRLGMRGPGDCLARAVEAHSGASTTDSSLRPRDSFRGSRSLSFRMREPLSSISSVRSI
Procedure: Compounds that are not specific for a particular S1P receptor can cause undesirable side effects. Accordingly, compounds are tested to identify those that are specific. Accordingly, the test compounds are tested in a calcium mobilization assay/S1P receptor activity assay. The procedure is essentially as described in Davis et al. (2005) Journal of Biological Chemistry, vol. 280, pp. 9833-9841, which is incorporated by reference in its entirety with the following modifications. Calcium mobilization assays are performed in recombinant CHEM cells expressing human S1P1, S1P2, S1P3, S1P4, or S1P5 purchased from Millipore (Billerica, Mass.). To detect free intracellular calcium, S1P1, S1P2, S1P3, S1P4, or S1P5 cells are loaded with FLIPR Calcium 4 dye from Molecular Devices (Sunnyvale, Calif.). Cells are imaged for calcium mobilization using a FLIPR^TETRA equipped with a 96-well dispense head.
Agonist percentage activation determinations were obtained by assaying sample compounds and referencing the Emax control for each receptor profiled. Antagonist percentage inhibition determinations were obtained by assaying sample compounds and referencing the control EC80 wells for each receptor profiled.
Sample compounds were plated in an eight-point, four-fold dilution series in duplicate with a top concentration of 10 μM. The concentrations described here reflect the final concentration of the compounds during the antagonist assay. During the agonist assay the compound concentrations were 1.25 fold higher to allow for the final desired concentration to be achieved with further dilution by EC80 of reference agonists during the antagonist assay.
Reference agonists were handled as mentioned above serving as assay control. The reference agonists were handled as described above for Emax.
Assay was read for 180 seconds using the FLIPR^TETRA (This assay run added sample compounds and reference agonist to respective wells). At the completion of the first “Single Addition” assay run, assay plate was removed from the FLIPR^TETRA and placed at 25° C. for seven (7) minutes.
Using the EC80 values determined during the agonist assay, stimulated all pre-incubated sample compound and reference antagonist (if applicable) wells with EC80 of reference agonist. Read for 180 seconds using the FLIPR^TETRA (This assay added reference agonist to respective wells—then fluorescence measurements were collected to calculate percentage inhibition values).

Human ATX protein = biological target: T2, Human ATX protein (Homo sapiens, UniProt Q13822); experiment: ATX biochemical FRET assay with FS-3 substrate; conditions: FS-3 2 μM, ATX 1.0 μg/mL, binned table, read-out: IC50 (μm)
T2 construct: made in house
From the text: ATX (Autotaxin) is a 125 KDa glycoprotein with lysophospholipase D (LPLD) activity that generates the bioactive lipid lysophosphatidic acid (LPA) from lysophosphatidylcholine (LPC). The ATX biochemical assay utilizes a FRET (fluorescence resonance energy transfer) technology platform. The fluorescence signal of FRET substrate FS-3 is quenched due to intra-molecular FRET of a fluorophore to a non-fluorescing quencher (Ferguson, C. G., et al., Org. Lett. 2006 May 11; 8(10): 2023-2026, which is incorporated by reference in its entirety). ATX catalyzes the hydrolysis of the substrate which separates the dabsyl quencher from the fluorescein reporter, which becomes fluorescent. The reaction is monitored by a SpectraMax M5 (Molecular Devices, Sunnyvale, Calif.) with at excitation wavelength 485 nm and emission wavelength 535 nm.
2×ATX assay buffer: 100 mM Tris, 280 mM NaCl, 10 mM KCl, 2 mM CaCl2, 2 mM MgCl2, pH 7.4.
Human ATX protein: expressed and purified in house. Stored at −80° C.
Substrate FS-3 (Echelon, L-2000): 100 μg in 77.74 μL H2O (1 mM stock), stored at −20° C.
Compound dilution—All compounds were provided at 10 mM in 100% DMSO. In the first well, 2 μL of 10 mM compound was added to 78 μL of DMSO (1:40 dilution). In subsequent wells 3-fold dilution (total 10 dilutions) were performed.
1×ATX assay buffer was made up with a final concentration of 1 mg/mL fatty acid free-BSA using 2×ATX assay buffer, 10 mg/ml fatty acid free-BSA and ddH2O.
ATX protein was diluted with 1×ATX assay buffer to a concentration of 1.32 μg/mL (1.32×). 38 μL was added per well to the assay plate. The final concentration of ATX in the reaction as 1.0 μg/mL.
2 μL per well of compounds was transferred to provide the desired concentration. The plate was centrifuged, then incubated at room temperature for 30 minutes on the shaker.
FS-3 was diluted with 1×ATX assay buffer to a concentration of FS-3 of 10 μM (5×). Then, 10 μL was added per well to the assay plate. The final concentration of FS-3 in the reaction was 2 μM. The plate was centrifuged. The plate was kept shaking at room temperature for 2 hours. Because FS-3 substrate is light sensitive, plates were kept covered and protected from light.
Fluorescence was measured using SpectraMax M5 (excitation at 485 nm/emission at 538 nm, top read).

SMILES | IC50 (human S1P4) [µM] | IC50 (Human ATX protein) [µM]
CC(C)(C)[C@H]1CC[C@H](Oc2ccc3c(CN4CCC(C(=O)O)CC4)cccc3c2)CC1 [Example 31, 1-((6-((trans-4-(tert-butyl)cyclohexyl)oxy)naphthalen-1-yl)methyl)piperidine-4-carboxylic acid] | ≤ 5 | 
CC(C)(C)[C@H]1CC[C@H](Oc2ccc3cccc(CN4CCC(C(=O)O)CC4)c3c2)CC1 [Example 29, 1-((7-((trans-4-(tert-butyl)cyclohexyl)oxy)naphthalen-1-yl)methyl)piperidine-4-carboxylic acid] | ≤ 5 | > 5
CCCCCCCOc1ccc2c(CN3CCC(CC(=O)O)CC3)cccc2c1 [Example 34, 2-(1-((6-(heptyloxy)naphthalen-1-yl)methyl)piperidin-4-yl)acetic acid] | ≤ 5 | > 5
CCCCCCCOc1ccc2cccc(CN3CCC(C(=O)O)CC3)c2c1 [Example 30, 1-((7-(heptyloxy)naphthalen-1-yl)methyl)piperidine-4-carboxylic acid] | ≤ 5 | > 5
CC(C)(C)[C@H]1CC[C@H](Oc2ccc3c(CN4CCC(CC(=O)O)CC4)cccc3c2)CC1 [Example 33, 2-(1-((6-((trans-4-(tert-butyl)cyclohexyl)oxy)naphthalen-1-yl)methyl)piperidin-4-yl)acetic acid] | ≤ 5 | > 5
CCCCCCCOc1ccc2c(CN3CCC(C(=O)O)CC3)cccc2c1 [Example 32, 1-((6-(heptyloxy)naphthalen-1-yl)methyl)piperidine-4-carboxylic acid] | ≤ 5 | > 5
O=C(O)C1(NCc2cccc3c(C(F)(F)F)c(O[C@H]4CC[C@@H](C(F)(F)F)CC4)ccc23)CCCCC1 [Example 15, 1-(((5-(trifluoromethyl)-6-((cis-4-(trifluoromethyl)cyclohexyl)oxy)naphthalen-1-yl)methyl)amino)cyclohexanecarboxylic acid] |  | > 5
